Source: patent publication US8821875B2, “Pharmaceutical composition comprising antibodies against catalase and superoxide dismutase for tumor therapy” (Universitaetsklinikum Freiburg, priority 2011, dated 2014)

How the values were obtained:
[1] = system: human Ewing's sarcoma line SKN-MC; assay: Induction of apoptosis in Ewing's sarcoma line SKN-MC and inhibitor analysis; format: cell-based; conditions: 3 hours, inhibitor concentrations; for effect of inhibitor on anti-catalase-induced apoptosis: FIG. 13A; for effect of inhibitor on anti-SOD-induced apoptosis: FIG. 13B
Experimental: To 12 500 cells of the human neuroblastoma line SHEP and the human Ewing's sarcoma line SKN-MC in […] EMEM plus 5% FBS the given concentrations of anti-catalase and anti-SOD, respectively, were added. The percentages of apoptotic cells were determined after 5 hours (SHEP) and 5.5 hours (SKNMC), respectively.
To 10 000 cells of the human Ewing's sarcoma line SKN-MC in […] EMEM plus 5% FBS the given inhibitors and the concentrations of anti-catalase and anti-SOD, respectively, plotted in the abscissa were added. The percentages of apoptotic cells were determined after 3 hours.
Inhibitors: 50 mM taurine (HOCl scavenger); […] (peroxynitrite decomposition catalyst); 1000 U/ml catalase from ox liver; 40 mM MnTE2PyP(SOD mimetic); 90 U/ml MnSOD; 20 mM 3-Br-7-nitroindazole (nNOS specific inhibitor).

[2] = system: MKN-45 cells; assay: Inhibitor analysis of antibody-induced apoptosis in MKN-45 cells (ROS signaling); format: cell-based, human; conditions: for effect of inhibitor on apoptosis induced by monoclonal antibody against catalase: MKN-45, 2 hours, FIG. 8; for effect of inhibitor on anti-SOD-induced apoptosis: MKN-45, 6 hours, inhibitor concentrations of b79
Experimental: To 12 500 MKN-45 cells in […] RPMI 1640 medium, 10% FBS the given concentrations of the monoclonal antibodies against catalase as well as the mentioned inhibitors were added and the incubation was continued for 2 hours at 37° C., 5% CO2, before in duplicates the percentages of apoptotic cells were determined.
To 12 500 MKN-45 cells in […] RPMI 1640 medium, 10% FBS the given concentrations of the monoclonal antibodies against catalase and the given concentrations of the salen-manganese complex EUK-134 (chloro[[2,2′-[1,2-ethanediylbis[(nitrilo-κN)methylidyne]]bis[6-methoxyphenolato-κO]]]-manganese) (a catalase mimetic) were added and the incubation was continued for 2.5 hours at 37° C., 5% CO2. Subsequently, the percentage of apoptotic cells (duplicates) was determined according to the conventional apoptosis criteria membrane blebbing, nuclear condensation and/or nuclear fragmentation.
To 12 500 MKN-45 cells in […] RPMI 1640 medium, 10% FBS the given concentrations of monoclonal antibodies against SOD and the given inhibitors were added and the incubation was continued for 6 hours at 37° C., 5% CO2. Subsequently, the percentage of apoptotic cells (duplicates) was determined according to the conventional apoptosis criteria membrane blebbing, nuclear condensation, and/or nuclear fragmentation.
Inhibitors: […] FeTPPS (peroxynitrite decomposition catalyst); 75 U/ml MnSOD; 50 mM taurine (HOCl scavenger); 2.4 mM L-NAME (NOS inhibitor).

[3] = system: MKN-45 cells; assay: Synergistic effect of anti-catalase and anti-SOD in induction of apoptosis in MKN-45 cells; format: cell-based, human; conditions: 2 mM histidine, MKN-45, 3 hours, FIG. 18
Experimental: 12 500 MKN-45 cells in […] RPMI 1640 medium, 10% FBS received the given concentrations of anti-catalase. Control batches remained free of additional batches, batches for determination of the interaction additionally received 0.5 ng/ml or 2 ng/ml anti-SOD. The percentages of apoptotic cells were determined after 5.5 hours in duplicates.
This is unexpected and of great interest, since on its basis a considerable saving of antibodies could be achieved with the same effect. So, for example the combination of 2 ng/ml anti-SOD with 2 ng/ml anti-catalase results in 80 percent of the effect that can be achieved with 125 ng/ml of anti-catalase antibodies alone. 12 500 MKN-45 cells in […] RPMI 1640 medium, 10% FBS received the given concentrations of anti-catalase (control), anti-catalase plus 2 mM histidine (singlet oxygen scavenger), anti-catalase plus 1 ng/ml anti-SOD, anti-catalase/1 ng/ml anti-SOD/2 mM histidine. The percentages of apoptotic cells are determined after 3 hours in duplicates.
12 500 MKN-45 cells in […] RPMI 1640 medium, 10% FBS received the given concentrations of the Fab fragment AbD15562 directed against catalase. […] The percentages of apoptotic cells were determined after 3 hours in duplicates.

Molecule | effect of inhibitor on anti-catalase-induced apoptosis [1] | effect of inhibitor on anti-SOD-induced apoptosis [1] | effect of inhibitor on apoptosis induced by monoclonal antibody against catalase ([2]; inhibitor concentrations) | effect of inhibitor on anti-SOD-induced apoptosis ([2]; FIG. 10) | also measured
O=[N+]([O-])c1cccc2c(Br)n[nH]c12 [3-Br-7-nitro-indazole, 3-bromo-7-nitroindazole] | inhibition | inhibition | – | – | –
NCCc1ccc(S(=O)(=O)F)cc1 [AEBSF, 4-(2-aminoethyl)-benzenesulfonyl fluoride] | – | – | inhibited | – | –
COc1cccc(C=NCCN=Cc2cccc(OC)c2[O-])c1[O-].[Cl-].[Mn+3] [EUK-134] | – | – | – | – | effect on anti-catalase-induced apoptosis ([2]; 0.25 μM EUK-134, middle concentration range of the antibody, FIG. 9): stronger inhibition; effect on anti-catalase-induced apoptosis ([2]; 0.25 mM EUK-134, lower concentration range of the antibodies, FIG. 9): significant increase in apoptosis; effect on concentration curve of anti-catalase-induced apoptosis ([2]; 0.06 and 0.125 mM EUK-134, MKN-45, 2.5 hours, FIG. 9): change the optimum curve into a plateau curve; effect on anti-catalase-induced apoptosis ([2]; two next higher concentrations of EUK-134, middle concentration range of the antibody, FIG. 9): complete inhibition of the HOCl pathway
Cl.O=S(=O)([O-])c1ccc(-c2c3nc(c(-c4ccc(S(=O)(=O)O)cc4)c4ccc([nH]4)c(-c4ccc(S(=O)(=O)O)cc4)c4nc(c(-c5ccc(S(=O)(=O)O)cc5)c5ccc2[nH]5)C=C4)C=C3)cc1.[Fe] [FeTPPS, 5-, 10-, 15-, 20-tetrakis(4-sulfonatophenyl)porphyrinato iron(III) chloride] | inhibition | inhibition | inhibited in the lower concentration range of the antibody | inhibition | –
COC(=O)[C@@H](N)CCCNC(=N)N[N+](=O)[O-].Cl [L-NAME, N-ω-nitro-L-arginine methylester hydrochloride] | – | – | inhibited in the lower concentration range of the antibody | inhibition | –
CC[n+]1ccccc1-c1c2nc(c(-c3cccc[n+]3CC)c3ccc([n-]3)c(-c3cccc[n+]3CC)c3nc(c(-c4cccc[n+]4CC)c4ccc1[n-]4)C=C3)C=C2.[Cl-].[Cl-].[Cl-].[Cl-].[Cl-].[Mn+3] [MnTE2PyP, Mn(III) meso-tetrakis(N-ethyl-2-pyridyl)porphyrin pentachloride] | inhibition | inhibition | – | – | –
N[C@@H](Cc1c[nH]cn1)C(=O)O [histidine] | – | – | – | – | blocking of the supra-optimum drop of the concentration-dependent curves [3]: can be blocked; blocking of the synergistic effect between anti-SOD and anti-catalase [3]: cannot be blocked
NCCS(=O)(=O)O [taurine] | lacking inhibitory effect | lacking inhibitory effect | – | lacking inhabitability | effect on the NO/peroxynitrite pathway in anti-SOD-induced apoptosis ([2]; MKN-45, 50 mM taurine, FIG. 10): enhancing effect; effect of inhibitor on apoptosis induced by monoclonal antibody against catalase ([2]; higher antibody concentration (HOCl pathway)): inhibitory effect
exogenous catalase: 1000 U/ml catalase from ox liver, added exogenously (protein, UniProt P00432 2-527, looked up) Catalase: ADNRDPASDQMKHWKEQRAAQKPDVLTTGGGNPVGDKLNSLTVGPRGPLLVQDVVFTDEMAHFDRERIPERVVHAKGAGAFGYFEVTHDITRYSKAKVFEHIGKRTPIAVRFSTVAGESGSADTVRDPRGFAVKFYTEDGNWDLVGNNTPIFFIRDALLFPSFIHSQKRNPQTHLKDPDMVWDFWSLRPESLHQVSFLFSDRGIPDGHRHMNGYGSHTFKLVNANGEAVYCKFHYKTDQGIKNLSVEDAARLAHEDPDYGLRDLFNAIATGNYPSWTLYIQVMTFSEAEIFPFNPFDLTKVWPHGDYPLIPVGKLVLNRNPVNYFAEVEQLAFDPSNMPPGIEPSPDKMLQGRLFAYPDTHRHRLGPNYLQIPVNCPYRARVANYQRDGPMCMMDNQGGAPNYYPNSFSAPEHQPSALEHRTHFSGDVQRFNSANDDNVTQVRTFYLKVLNEEQRKRLCENIAGHLKDAQLFIQKKAVKNFSDVHPEYGSRIQALLDKYNEEKPKNAVHTYVQHGSHLSAREKANL | compensated | compensated | – | – | –
